The target in assay [1] is T1, human VR1 (Homo sapiens, UniProt Q8NER1).
T1 construct: expressed in transfected cells; host or cells: HEK293
Kind of assay: Human VR1 functional assay (intracellular Ca++, FLIPR, capsaicin challenge). In kind it is cell-based. As to the method:
The functional activity of the test compounds was determined by measuring changes in intracellular calcium concentration using a Ca^++-sensitive fluorescent dye and FLIPR™ technology.
EC50 or IC50 values were determined from dose-response studies.

Assay [2] addresses T1, human VR1. Kind of assay: Human VR1 [3H] RTX binding assay. To be noted: 3H-RTX binding; for inhibition at 1 µM: compound at 1 μM; for Ki: hVR1, read-out: 3H-RTX binding assay Ki hVR1. As to the method:
Compounds of the present invention were tested for their ability to inhibit the binding of [^3H] RTX to hVR1 receptors in a [^3H]
HEK293 cells were transfected with human VR1 vanilloid receptors and washed with Hank's Balanced Salt Solution, dissociated with cell dissociation buffer (Sigma), and then centrifuged at 1000×g for 5 min. […] The pelleted membranes were kept in an −80° C. freezer.
Approximately 120 μg protein/ml from membranes were incubated with indicated concentrations of [^3H] RTX in 0.5 ml of the HEPES buffer (pH 7.4) containing 0.25 mg/mL fatty acid-free bovine serum albumin at 37° C. for 60 min. […] The tip of the microcentrifuge tube containing the pellet was cut off. Bound radioactivity was quantified by scintillation counting. Non-specific binding was tested in the presence of 200 nM unlabeled RTX.

[3] abbreviates: FLIPR functional assay IC50 hVR1 60 min, 60 min.
Where [4] appears, read: hVR1, capsaicin challenge, read-out: FLIPR functional assay IC50 hVR1.

Several values for one entry are separate records, joined by “and”; a condition that tells them apart may be missing. Equal entries are not always repeated. Where two headings read alike, the source gives them in different places.

T1 sequence (Q8NER1 whole entry): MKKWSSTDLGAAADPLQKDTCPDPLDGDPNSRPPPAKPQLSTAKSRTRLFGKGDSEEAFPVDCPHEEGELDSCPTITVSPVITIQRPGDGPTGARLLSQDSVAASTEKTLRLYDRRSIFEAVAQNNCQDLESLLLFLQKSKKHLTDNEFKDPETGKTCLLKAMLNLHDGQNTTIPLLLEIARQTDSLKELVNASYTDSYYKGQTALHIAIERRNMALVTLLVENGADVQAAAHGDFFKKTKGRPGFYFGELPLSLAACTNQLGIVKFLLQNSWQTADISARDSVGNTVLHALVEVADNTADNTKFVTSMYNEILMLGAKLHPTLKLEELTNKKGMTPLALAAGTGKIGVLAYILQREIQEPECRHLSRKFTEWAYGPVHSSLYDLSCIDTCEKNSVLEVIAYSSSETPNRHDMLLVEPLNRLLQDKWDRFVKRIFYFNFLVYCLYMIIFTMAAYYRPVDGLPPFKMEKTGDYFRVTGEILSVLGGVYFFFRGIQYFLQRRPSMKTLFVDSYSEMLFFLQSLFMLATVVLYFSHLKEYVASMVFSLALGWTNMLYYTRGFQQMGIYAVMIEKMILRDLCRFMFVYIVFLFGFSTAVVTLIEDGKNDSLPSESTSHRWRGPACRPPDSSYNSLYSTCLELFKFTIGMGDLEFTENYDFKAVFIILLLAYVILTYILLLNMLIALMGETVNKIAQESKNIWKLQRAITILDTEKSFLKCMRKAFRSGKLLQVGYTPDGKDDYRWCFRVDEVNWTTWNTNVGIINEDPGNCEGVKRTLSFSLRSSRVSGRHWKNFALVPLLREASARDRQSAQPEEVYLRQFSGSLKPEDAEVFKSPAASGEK

For the compound `O=C(Nc1cnc2ccccc2c1)c1ccc(N2CC3CCCC(C3)C2)cc1` [4-(3-Aza-bicyclo{3.3.1}non-3-yl)-N-quinolin-3-yl-benzamide], the IC50 (as a rule, the concentration at which inhibition is half-maximal) against human VR1 [1] (setting [3]) turned out to be 127 nM; on human VR1 [1] (setting [4]) it was 170 nM. The inhibition (as a rule, the change of the read-out against control, counted positive when it falls) at 1 µM on human VR1 [2] is 99%. Also, the Ki (in general, a dissociation constant, usually derived from enzyme kinetics or from competition with a known ligand) on human VR1 [2] was found to be 5.15 nM.
For `CCCCC1CCC(C(=O)Nc2cnc3ccccc3c2)CC1` (centres unmarked) [4-Butyl-cyclohexanecarboxylic acid quinolin-3-ylamide], the IC50 on human VR1 [1] (setting [4]) was found to be 170 nM. On human VR1 [2], the inhibition at 1 µM was 81% and the Ki was 124 nM.
As to `CCCN(c1ccc(C(=O)Nc2cnc3ccccc3c2)cc1)C1CCCCC1` [4-(Cyclohexyl-propyl-amino)-N-quinolin-3-yl-benzamide], at human VR1 [1] (setting [4]), the IC50 turned out to be 10000 nM. Further, the Ki on human VR1 [2] turned out to be 84.6 nM.
For the compound `O=C(Nc1cnc2ccccc2c1)c1ccc2c(c1)CCN2` [2,3-Dihydro-1H-indole-5-carboxylic acid quinolin-3-ylamide], the IC50 on human VR1 [1] (setting [4]) came to 10500 nM. The inhibition at 1 µM at human VR1 [2] amounted to 1%.
Regarding `CC(=O)N(c1ccc(C(=O)Nc2cnc3ccccc3c2)cc1)C1CCCCC1` [4-(Acetyl-cyclohexyl-amino)-N-quinolin-3-yl-benzamide], the IC50 at human VR1 [1] (setting [4]) was found to be 10000 nM. Also, the inhibition at 1 µM at human VR1 [2] turned out to be 1%.
Regarding `Cc1ccc(C(C)CCN(C)c2ccc(C(=O)Nc3cnc4ccccc4c3)cc2)o1` (centres unmarked) [4-{Methyl-{3-(5-methyl-furan-2-yl)-butyl}-amino}-N-quinolin-3-yl-benzamide], on human VR1 [1] (setting [4]), the IC50 was 1500 nM. On human VR1 [2], the inhibition at 1 µM came to 102% and the Ki worked out at 31.2 nM.
At human VR1 [1] (setting [3]), `CCC=CCCCN(C)c1ccc(C(=O)Nc2cnc3ccccc3c2)cc1` [4-(Hept-4-enyl-methyl-amino)-N-quinolin-3-yl-benzamide] displayed an IC50 of 46 nM. In addition, the IC50 on human VR1 [1] (setting [4]) stood at 1900 nM. In addition, on human VR1 [2], the inhibition at 1 µM is 104% and the Ki is 29.8 nM.
Take `CCCCCc1ccc(C(=O)Nc2cnc3ccccc3c2)s1` [5-Pentyl-thiophene-2-carboxylic acid quinolin-3-ylamide]: at human VR1 [1] (setting [4]), the IC50 is 900 nM. On human VR1 [2], the inhibition at 1 µM was 57% and the Ki was 647 nM.
For `CCCCCCCN(C)c1ccc(C(=O)Nc2cnc3ccccc3c2)cn1` [6-(Heptyl-methyl-amino)-N-quinolin-3-yl-nicotinamide] the same measures were 1500 nM, 90% and 97.3 nM.
The corresponding values for `O=C(Nc1cnc2ccccc2c1)c1ccc(N2CCCCCC2)nc1` [6-Azepan-1-yl-N-quinolin-3-yl-nicotinamide] are 215 nM, 44% and 124 nM.
Compound `CCCCCc1ccc(C=CC(=O)Nc2cnc3ccccc3c2)cc1` [3-(4-Pentyl-phenyl)-N-quinolin-3-yl-acrylamide] registered an IC50 at human VR1 [1] (setting [3]) of 5200 nM. Besides, the inhibitory constant (Ki) at human VR1 [2] was found to be 428 nM.
`O=C(CCc1ccc2c(c1)CCC2)Nc1cnc2ccccc2c1` [3-Indan-5-yl-N-quinolin-3-yl-propionamide]: the IC50 on human VR1 [1] (setting [4]) was 10000 nM. For the same compound, the Ki at human VR1 [2] worked out at 158 nM.
For `Cc1cc(C(=O)Nc2cnc3ccccc3c2)ccc1N(C)CC1CCCCC1` [4-(Cyclohexylmethyl-methyl-amino)-3-methyl-N-quinolin-3-yl-benzamide] the same measures were 10000 nM and 68.3 nM.
As for `CCCCCN(C)c1ccc(C(=O)Nc2cnc3ccccc3c2)cc1C` [3-Methyl-4-(methyl-pentyl-amino)-N-quinolin-3-yl-benzamide], on human VR1 [1] (setting [4]), the IC50 was 54 nM. Also, at human VR1 [2], the inhibition at 1 µM was found to be 107% and the Ki was determined as 37.9 nM.
Consider `CCCCCCCCN(C)c1ccc(C(=O)Nc2cnc3ccccc3c2)cc1` [4-(Octyl-methyl-amino)-N-quinolin-3-yl-benzamide], for which the IC50 at human VR1 [1] (read-out: FLIPR functional assay IC50 hVR1 60 min, 60 min) stood at 190 nM. In addition, on human VR1 [2], the inhibition at 1 µM was determined as 105% and the Ki amounted to 14.7 nM.
Take `CCCn1ccc2cc(CCC(=O)Nc3cnc4ccccc4c3)ccc21` [3-(1-Propyl-1H-indol-5-yl)-N-quinolin-3-yl-propionamide]: the IC50 on human VR1 [1] (setting [4]) was 480 nM. Further, at human VR1 [2], the inhibition at 1 µM stood at 59% and the Ki was found to be 264 nM.
`CCCCCc1ccc(CCC(=O)Nc2cnc3ccccc3c2)cc1` [3-(4-Pentyl-phenyl)-N-quinolin-3-yl-propionamide] displayed an IC50 on human VR1 [1] (setting [3]) of 590 nM. Besides, the Ki on human VR1 [2] is 181 nM.
`CN(CCC(C)(C)C)c1ccc(C(=O)Nc2cnc3ccccc3c2)cc1` [4-{(3,3-Dimethyl-butyl)-methyl-amino}-N-quinolin-3-yl-benzamide] had an IC50 against human VR1 [1] (setting [3]) of 1300 nM. Besides, the IC50 on human VR1 [1] (setting [4]) was found to be 10000 nM. At human VR1 [2], the inhibition at 1 µM worked out at 99% and the Ki came to 20.9 nM.
The corresponding values for `CN(CCc1ccccc1)c1ccc(C(=O)Nc2cnc3ccccc3c2)cn1` [6-(Methyl-phenethyl-amino)-N-quinolin-3-yl-nicotinamide] are 540 nM, 1200 nM, 97% and 243 nM.
For `CCCCN(C)c1ccc(C(=O)Nc2cnc3ccccc3c2)cc1` [4-(Methyl-butyl-amino)-N-quinolin-3-yl-benzamide], on human VR1 [1] (setting [3]), the IC50 was 100 nM. Further, the IC50 at human VR1 [1] (setting [4]) is 786 nM. In addition, at human VR1 [2], the inhibition at 1 µM came to 97% and the Ki came out at 83.3 nM.
Consider `O=C(CCc1ccc2c(c1)CCCC2)Nc1cnc2ccccc2c1` [N-Quinolin-3-yl-3-(5,6,7,8-tetrahydro-naphthalen-2-yl)-propionamide], for which, at human VR1 [1] (setting [4]), the IC50 turned out to be 10000 nM. On human VR1 [2], the Ki was 200 nM.
Turning to `CCCC1CCN(c2ccc(C(=O)Nc3cnc4ccccc4c3)cc2)CC1` [4-(4-Propyl-piperidin-1-yl)-N-quinolin-3-yl-benzamide], the IC50 on human VR1 [1] (setting [3]) stood at 170 nM; on human VR1 [1] (setting [4]), 16000 nM. For the same compound, the inhibition at 1 µM on human VR1 [2] was 92%. At human VR1 [2], the Ki was 103 nM.
For the compound `CCCCCCN(CCCCCC)c1ccc(C(=O)Nc2cnc3ccccc3c2)cc1` [4-Dihexylamino-N-quinolin-3-yl-benzamide], 2900 nM corresponded to half-maximal inhibition on human VR1 [1] (setting [3]) (IC50). For the same compound, on human VR1 [2], the inhibition at 1 µM is 74% and the Ki was determined as 185 nM.
Take `CN(c1ccc(C(=O)Nc2cnc3ccccc3c2)cn1)C1CCCCC1` [6-(Cyclohexyl-methyl-amino)-N-quinolin-3-yl-nicotinamide]: the IC50 on human VR1 [1] (setting [4]) was 300 nM and 245 nM. Besides, at human VR1 [2], the inhibition at 1 µM worked out at 99%; the Ki was 35.9 nM and 218 nM.
For `O=C(Nc1cnc2ccccc2c1)c1ccc(N2CC[C@@H]3CCCC[C@H]3C2)nc1` (relative stereo) [trans-6-(Octahydro-isoquinolin-2-yl)-N-quinolin-3-yl-nicotinamide], at human VR1 [1] (setting [4]), the IC50 was determined as 85 nM. For the same compound, at human VR1 [2], the inhibition at 1 µM was 104% and the Ki came out at 33.2 nM.
For `CCCCC(C)(C)c1ccc(CCCC(=O)Nc2cnc3ccccc3c2)cc1` [4-{4-(1,1-Dimethyl-pentyl)-phenyl}-N-quinolin-3-yl-butyramide] the same measures were 10000 nM, 82% and 221 nM.
Take `O=C(CCc1ccc(CC2CCCCC2)cc1)Nc1cnc2ccccc2c1` [3-(4-Cyclohexylmethyl-phenyl)-N-quinolin-3-yl-propionamide]: the IC50 at human VR1 [1] (setting [3]) was 35 nM; on human VR1 [1] (setting [4]), 670 nM. Moreover, the Ki on human VR1 [2] came to 94.1 nM.
With `CC(C)CCN(C)c1ccc(C(=O)Nc2cnc3ccccc3c2)cc1` [4-{Methyl-(3-methyl-butyl)-amino}-N-quinolin-3-yl-benzamide], the IC50 on human VR1 [1] (setting [4]) was 280 nM. Also, at human VR1 [2], the inhibition at 1 µM is 90% and the Ki came out at 554 nM.
Turning to `O=C(Nc1cnc2ccccc2c1)c1ccc2c(c1)CCCC2` [5,6,7,8-Tetrahydro-naphthalene-2-carboxylic acid quinolin-3-ylamide], the IC50 on human VR1 [1] (setting [4]) is 10000 nM. Moreover, the Ki at human VR1 [2] worked out at 62.3 nM.
Take `CCCN(CCC)c1ccc(C(=O)Nc2cnc3ccccc3c2)cc1` [4-Dipropylamino-N-quinolin-3-yl-benzamide]: the IC50 worked out at 166 nM at human VR1 [1] (setting [3]) and 610 nM at human VR1 [1] (setting [4]). For the same compound, on human VR1 [2], the inhibitory constant (Ki) was found to be 219 nM.
Turning to `CN(C(=O)c1ccc(NC2CCCCC2)cc1)c1cnc2ccccc2c1` [4-Cyclohexylamino-N-methyl-N-quinolin-3-yl-benzamide], the IC50 at human VR1 [1] (setting [4]) stood at 10000 nM. The Ki on human VR1 [2] worked out at 2160 nM.
`CCCCCNc1ccc(C(=O)Nc2cnc3ccccc3c2)cn1` [6-Pentylamino-N-quinolin-3-yl-nicotinamide]: the IC50 on human VR1 [1] (setting [3]) was determined as 8000 nM. At human VR1 [2], the inhibition at 1 µM came out at 57% and the Ki was determined as 281000 nM.
`CCC(C)(C)c1ccc(C=CCC(=O)Nc2cnc3ccccc3c2)cc1` [4-{4-(1,1-Dimethyl-propyl)-phenyl}-but-3-enoic acid quinolin-3-ylamide]: the IC50 at human VR1 [1] (setting [4]) stood at 10000 nM. Also, on human VR1 [2], the inhibition at 1 µM came out at 55% and the Ki was 137 nM.
Regarding `O=C(Nc1cnc2ccccc2c1Cl)c1ccc2c(ccn2C2CCCCC2)c1` [1-Cyclohexyl-1H-indole-5-carboxylic acid (4-chloro-quinolin-3-yl)-amide], the IC50 at human VR1 [1] (setting [4]) is 166 nM.
Still for that read-out and setting: the figure for `O=C(Nc1cnc2ccccc2c1)c1ccc2c(ccn2C2CCCCC2)c1` [1-Cyclohexyl-1H-indole-5-carboxylic acid quinolin-3-ylamide] is 74 nM.
On the same count and under the same terms, for `CN(c1ccc(C(=O)Nc2cnc3ccccc3c2Cl)cc1)C1CCCCC1` [N-(4-Chloro-quinolin-3-yl)-4-(cyclohexyl-methyl-amino)-benzamide] the value was 107 nM.

For the origin of these results see patent publication US8394828B2 (Janssen Pharmaceutica, NV, priority 2003, dated 2013).
